Patent US10183962B2, “Synthetic oligomers of Neisseria meningitis serogroup X and process of preparing them” (MSD WELLCOME TRUST HILLEMAN LA[…]. LTD., priority 2014, dated 2019)

Test system: rabbit antiserum against N. meningitidis serogroup X (anti-Men-X antibodies binding to bacterial Men-X polysaccharide)
Experiment: competition (inhibition) ELISA, antigenicity of synthetic Men-X tetramer and its TT conjugate
Conditions: antigen at 10-1000 μg oligosaccharide/ml; antiserum diluted eight thousand fold; relative to no antigen control; FIG. 1, alpha anomer, triplicate

6-Aminohexyl (2-acetamido-2-deoxy-α-D-glucopyranosyl phosphate)-(1→4)-(2-acetamido-2-deoxy-α-D-glucopyranosyl phosphate)-(1→4)-(2-acetamido-2-deoxy-α-D-glucopyranosyl phosphate)-(1→4)-2-acetamido-2-deoxy-α-D-glucopyranoside, tris-sodium salt [Men X Tetramer 1]
percentage inhibition of binding of anti-Men-X antibodies to bacterial Men-X polysaccharide coated on plate: up to 68%
